Read-outs that look alike come from different tables or passages of the source.
Assays:
[1] = system: Plasmodium falciparum T96 Zellinie A; assay: Growth inhibition of chloroquine-sensitive P. falciparum cultured in human erythrocytes; format: cell-based; conditions: for IC20 / IC50: Plasmodium falciparum, Erythrocyte; for IC50: over 2 cycles
Text: (§1) • a) Durch konventionelles Züchten des Stammes Plasmodium falciparum T96 in einer 2 % (V/V) Suspension von humanen Erythrozyten wird der Grundorganismus-Zellinie A fortgepflanzt, welche eine normale Empfindlichkeit gegenüber Chloroquin aufweist. • b) Zellinie A des obigen Stammes wird unter analogen Standardbedingungen wie unter a) gezüchtet, jedoch mit Zusatz von immer ansteigenden Konzentrationen von Chloroquin, bis eine Chloroquinresistente Zellinie B resultiert, welche weiterhin in Kulturmedien mit einer 500 nM-Konzentration von Chloroquin andauernd normales Wachstum (dieselbe Wachstumsraten wie Zellinie A) aufweist.
(§2) • I. Die Züchtung von Testorganismen erfolgt unter den für Züchtung von Plasmodien üblichen Bedingungen auf einer 2 % Suspension von humanen Erythrozyten, supplementiert mit 50 mg/1 Hypoxanthin und gegebenenfalls unter Zugabe der getesteten Hemmsubstanz in gewünschter Konzentration. Die initiale Parasitämie (- der prozentuelle Anteil der zu Beginn von Plasmodien infizierten Erythrozyten) beträgt 1-2 %. Das Resultat (Hemmwirkung) wird als IC50 ausgewertet, d.h. jene Konzentration des Wirkstoffes, die eine Senkung der finalen Parasitämie um 50 %, d.h. eine 50%ige Hemmung des Wachstums, verursacht. • II. In einer alternativen Versuchsanordnung wird beim Einhalten aller übrigen Bedingungen ohne Zugabe von Hypoxanthin und mit einer initialen Parasitämie von 0,5 % gearbeitet.

[2] = system: Plasmodium falciparum T96 Chloroquinresistente Zellinie B; assay: Growth inhibition of chloroquine-resistant P. falciparum cultured in human erythrocytes; format: cell-based; conditions: for IC50: Plasmodium falciparum, Erythrocyte, over 2 cycles
Text: as §1, §2

P. vinckei = conditions: cited from earlier work
[3] = system: Plasmodium falciparum in Kultur an menschlichen Erythrozyten; conditions: culture on human erythrocytes; cited from earlier work

`CCN(CC)CCCC(C)Nc1ccnc2cc(Cl)ccc12` (stereo not drawn) [Chloroquin, 7-Chlor-4-(4-diethylamino-l-methylbutylamino)chinolin] gave an IC20 [1] of 10 nM, an IC50 ([1]; Versuchsanordnung I (50 mg/l hypoxanthine, initial parasitaemia 1-2 %)) of 50 nM and an IC50 ([1]; Versuchsanordnung II (no hypoxanthine, initial parasitaemia 0,5 %)) of 10 to 15 nM. For the same molecule, the IC50 ([2]; Versuchsanordnung I) was ~800 nM and the Vermehrungsfaktor ([2]; Versuchsanordnung I, with 500 nM chloroquine in the medium, same as Zellinie A without chloroquine (within 48 hours)) was 7-9.

Molecule `CC(=O)N(O)CCCCCNC(=O)CCC(=O)N(O)CCCCCNC(=O)CCC(=O)N(O)CCCCCN` [Desferrioxamin B (Mesylat)] has an IC20 ([1]; Versuchsanordnung I, Hauptversuch II, read-out: IC20) of 9000 nM.

For `CC(=O)N(O)CCCCCNC(=O)CCC(=O)N(O)CCCCCNC(=O)CCC(=O)N(O)CCCCCN` [Desferrioxamin B, 6,17,28-Trihydroxy-7,10,18,21,29-pentaoxo-6,11,17,22,28-pentaaza-triacontanylamin], the IC50 ([1]; Versuchsanordnung I, read-out: IC50) is given as 17000 ± 3000 nM, the IC50 ([1]; Versuchsanordnung II, read-out: IC50) is given as 5000 ± 2000 nM and the “Wachstum des Parasiten” value (P. vinckei; 0,2 g/kg) is given as “deutlich hemmt”. The “Wachstum des Parasiten” value (P. vinckei; 1,0 g/kg) was “vollständig tötet”, the IC50 ([2]; Versuchsanordnung I, without chloroquine in the test medium) was 6000 ± 1500 nM and the IC50 ([2]; Versuchsanordnung II, without chloroquine in the test medium) was 2000 ± 1000 nM. For the same molecule, the “Konzentration für dieselbe Wachstumshemmung in the presence of chloroquine” value ([2]; in the presence of a chloroquine concentration inactive by itself, compared with no chloroquine) was “halbiert sich noch weiter”, the “Konzentration für dieselbe Wachstumshemmung, resistant strain compared with sensitive strain” value ([2]; without chloroquine, compared with normally sensitive strain under the same conditions) was “etwa dreimal niedrigeren Konzentration” and the “Wachstum (in vitro)” value [3] was “nicht nur in ihrem Wachstum gehemmt, sondern auch getötet”.

For `COc1ncnc(NS(=O)(=O)c2ccc(N)cc2)c1OC` [Sulfadoxine], the “Wachstumshemmung (result in words)” value ([1]; Hauptversuch II with this substance in place of chloroquine, combined with Desferrioxamin B) was “Analoge Resulte”.
